Laboratory results published in patent publication US8680159B2, “Bradykinin 1 receptor modulating compounds” (Gruenenthal GmbH, priority 2010, dated 2014).

Columns and labels:
[1] = target: T1, B1R receptor of the rat (CHO K1 cells stably transfected with the B1R gene of the rat) (Rattus norvegicus, UniProt P97583); experiment: Functional study on the bradykinin receptor 1 (B1R), Ca2+ fluorescence (Fluo-4) FLIPR/Novostar assay, rB1R cells; format: cell-based; details: CHO-K1, 10 μM, read-out: % inhibition (rat B1R) at 10 μM
T1 construct: expressed in transfected cells; host or cells: CHO K1 cells (Chinese hamster ovary), stably transfected
T1 sequence (P97583 1-337): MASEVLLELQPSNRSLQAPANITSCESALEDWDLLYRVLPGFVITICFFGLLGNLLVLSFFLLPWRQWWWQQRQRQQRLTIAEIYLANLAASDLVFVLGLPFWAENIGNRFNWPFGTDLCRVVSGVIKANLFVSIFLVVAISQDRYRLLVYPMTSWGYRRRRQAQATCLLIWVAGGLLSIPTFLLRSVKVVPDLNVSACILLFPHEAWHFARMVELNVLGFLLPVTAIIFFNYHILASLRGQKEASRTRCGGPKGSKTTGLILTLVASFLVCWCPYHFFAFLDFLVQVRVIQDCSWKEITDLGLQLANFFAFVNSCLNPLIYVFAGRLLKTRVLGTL
Procedure, shortened: (§1)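 Test compounds (10 μM) were added first and the Ca2+ rise was scored as % activation against Lys-Des-Arg9-bradykinin (≥50 nM, human) or Des-Arg9-bradykinin (≥1 μM, rat). After 6-20 min, the matching agonist was given at its EC80, and % inhibition relative to maximal achievable inhibition was calculated.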

[2] = target: T2, human B1R receptor (CHO K1 cells stably transfected with the human B1R gene) (Homo sapiens, UniProt P46663); experiment: Functional study on the bradykinin receptor 1 (B1R), Ca2+ fluorescence (Fluo-4) FLIPR/Novostar assay, hB1R cells; format: cell-based; details: CHO-K1, read-out: % inhibition (human B1R) at 10 μM
T2 construct: expressed in transfected cells; host or cells: CHO K1 cells (Chinese hamster ovary), stably transfected
T2 sequence (P46663 1-353): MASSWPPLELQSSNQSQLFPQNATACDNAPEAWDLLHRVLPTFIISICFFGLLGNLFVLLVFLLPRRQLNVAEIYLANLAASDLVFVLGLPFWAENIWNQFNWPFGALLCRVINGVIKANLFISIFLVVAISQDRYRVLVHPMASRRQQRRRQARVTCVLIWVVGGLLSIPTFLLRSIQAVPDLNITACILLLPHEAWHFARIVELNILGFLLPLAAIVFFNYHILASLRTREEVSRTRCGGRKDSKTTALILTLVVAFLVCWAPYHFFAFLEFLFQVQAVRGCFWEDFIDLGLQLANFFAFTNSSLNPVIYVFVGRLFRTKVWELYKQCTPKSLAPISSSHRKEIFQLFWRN
Procedure, shortened: as §1

| SMILES | inhibition at 10 µM [1] | inhibition at 10 µM [2] |
| --- | --- | --- |
| CC(C)CS(=O)(=O)N[C@@H]1CCc2ccc(C(=O)N(C)C3CCN(c4ccncc4)CC3)cc21 [Example H-68, (3R)-N-Methyl-3-[(2-methyl-propylsulfonyl)amino]-N-(1-pyridin-4-yl-piperidin-4-yl)-2,3-dihydro-1H-indene-5-carboxylic acid amide] | 104% | 100% |
| CN(C(=O)c1ccc2c(c1)[C@H](NC(=O)[C@H]1CCCc3ccccc31)CC2)C1CCN(c2ccncc2)CC1 [Example H-69, (1S)-N-[(1R)-6-[Methyl-(1-pyridin-4-yl-piperidin-4-yl)-carbamoyl]-2,3-dihydro-1H-inden-1-yl]-1,2,3,4-tetrahydro-naphthalene-1-carboxylic acid amide] | 99% | 100% |
| CN(C(=O)c1ccc2c(c1)[C@H](NC(=O)[C@@H]1CCCc3ccccc31)CC2)C1CCN(c2ccncc2)CC1 [Example H-70, N-[(1R)-6-[Methyl-(1-pyridin-4-yl-piperidin-4-yl)-carbamoyl]-2,3-dihydro-1H-inden-1-yl]-1,2,3,4-tetrahydro-naphthalene-1-carboxylic acid amide] | 96% | 100% |
| CN(C(=O)c1ccc2c(c1)[C@H](NC(=O)c1ccccc1)CC2)C1CCN(c2ccncc2)CC1 [Example H-71, (3R)-3-Benzoylamino-N-methyl-N-(1-pyridin-4-yl-piperidin-4-yl)-2,3-dihydro-1H-indene-5-carboxylic acid amide] | 99% | 100% |
| CN(C(=O)c1ccc2c(c1)[C@H](NS(=O)(=O)c1ccc(F)cc1)CC2)C1CCN(c2ccncc2)CC1 [Example H-72, (3R)-3-[[(4-Fluorophenyl)sulfonyl]amino]-N-methyl-N-(1-pyridin-4-yl-piperidin-4-yl)-2,3-dihydro-1H-indene-5-carboxylic acid amide] | 104% | 99% |
| CN(C(=O)c1ccc2c(c1)[C@H](NC(=O)c1cccc3ccccc13)CC2)C1CCN(c2ccncc2)CC1 [Example H-73, N-[(1R)-6-[Methyl-(1-pyridin-4-yl-piperidin-4-yl)-carbamoyl]-2,3-dihydro-1H-Inden-1-yl]-naphthalene-1-carboxylic acid amide] | 104% | 100% |
| CN(C(=O)c1ccc2c(c1)[C@H](NS(=O)(=O)c1ccccc1)CC2)C1CCN(c2ccncc2)CC1 [Example H-74, (3R)-3-(Benzenesulfonamido)-N-methyl-N-(1-pyridin-4-yl-piperidin-4-yl)-2,3-dihydro-1H-indene-5-carboxylic acid amide] | 104% | 100% |
| CN(C(=O)c1ccc2c(c1)[C@H](NC(=O)c1ccc(F)cc1)CC2)C1CCN(c2ccncc2)CC1 [Example H-75, (3R)-3-[(4-Fluoro-benzoyl)amino]-N-methyl-N-(1-pyridin-4-yl-piperidin-4-yl)-2,3-dihydro-1H-indene-5-carboxylic acid amide] | 105% | 100% |
| CN(C(=O)c1ccc2c(c1)[C@H](NC(=O)C1CCOCC1)CC2)C1CCN(c2ccncc2)CC1 [Example H-76, N-[(1R)-6-[Methyl-(1-pyridin-4-yl-piperidin-4-yl)-carbamoyl]-2,3-dihydro-1H-yl)-1-2,3-tetrahydro-pyran-4-carboxylic acid amide] | 107% | 95% |
| CCN(C(=O)c1ccc2c(c1)[C@H](NC(=O)c1ccccc1Cl)CC2)C1CCN(c2ccncc2)CC1 [Example H-77, (3R)-3-[(2-Chloro-benzoyl)amino]-N-ethyl-N-(1-pyridin-4-yl-piperidin-4-yl)-2,3-dihydro-1H-indene-5-carboxylic acid amide] | 104% | 100% |
| CN(C(=O)c1ccc2c(c1)[C@H](NC(=O)c1ccccc1Cl)CC2)C1CCN(c2ccc(F)cc2)CC1 [Example H-78, (3R)-3-[(2-Chloro-benzoyl)amino]-N-[1-(4-fluorophenyl)-pipendin-4-yl]-N-methyl-2,3-dihydro-1H-indene-5-carboxylic acid amide] | 85% | 31% |
| CCN(C(=O)c1ccc2c(c1)[C@H](NC(=O)c1ccccc1Cl)CC2)C1CCN(c2ccnc(C)c2)CC1 [Example H-79, (3R)-3-[(2-Chloro-benzoyl)amino]-N-ethyl-N-[1-(2-methyl-pyridin-4-yl)-piperidin-4-yl]-2,3-dihydro-1H-indene-5-carboxylic acid amide] | 110% | 100% |
| CN(C(=O)c1cc(F)c2c(c1)[C@H](NC(=O)c1ccccc1Cl)CCO2)C1CCN(c2ccncc2)CC1 [Example H-80, (4R)-4-[(2-Chloro-benzoyl)amino]-8-fluoro-N-methyl-N-(1-pyridin-4-yl-piperidin-4-yl)-3,4-dihydro-2H-chromene-6-carboxylic acid amide] | 110% | 100% |
| Cc1cc(N2CCC(N(C)C(=O)c3cc(F)c4c(c3)[C@H](NC(=O)c3ccccc3Cl)CCO4)CC2)nc(C)n1 [Example H-81, (4R)-4-[(2-Chloro-benzoyl)amino]-N-[1-(2,6-dimethyl-pyrimidin-4-yl)-piperidin-4-yl]-8-fluoro-N-methyl-3,4-dihydro-2H-chromene-6-carboxylic acid amide] | 109% | 95% |
| CN(C(=O)c1ccc2c(c1)[C@H](NC(=O)C1CCc3ccccc31)CC2)C1CCN(c2ccncc2)CC1 (stereo partly drawn) [Example H-82, (3R)-3-(2,3-Dihydro-1H-inden-1-carbonylamino)-N-methyl-N-(1-pyridin-4-yl-piperidin-4-yl)-2,3-dihydro-1H-indene-5-carboxylic acid amide] | 112% | 100% |
| CN(C(=O)c1ccc2c(c1)[C@H](NC(=O)c1cncc3ccccc13)CC2)C1CCN(c2ccncc2)CC1 [Example H-83, N-[(1R)-6-[Methyl-(1-pyridin-4-yl-piperidin-4-yl)-carbamoyl]-2,3-dihydro-1H-inden-1-yl]-isoquinoline-4-carboxylic acid amide] | 111% | 100% |
| CN(C(=O)c1ccc2c(c1)[C@H](NC(=O)C1CCOc3ccccc31)CC2)C1CCN(c2ccncc2)CC1 (stereo partly drawn) [Example H-84, N-[(1R)-6-[Methyl-(1-pyridin-4-yl-piperidin-4-yl)-carbamoyl]-2,3-dihydro-1H-inden-1-yl]-3,4-dihydro-2H-chromene-4-carboxylic acid amide] | 103% | 100% |
| Cc1cc(N2CCC(N(C)C(=O)c3ccc4c(c3)[C@H](NC(=O)CC(C)C)CC4)CC2)ccn1 [Example H-85, (3R)-N-Methyl-3-(3-methyl-butanoylamino)-N-[1-(2-methyl-pyridin-4-yl)-piperidin-4-yl]-2,3-dihydro-1H-indene-5-carboxylic acid amide] | 103% | 100% |
| Cc1cc(N2CCC(N(C)C(=O)c3ccc4c(c3)[C@H](NC(=O)CC(C)C)CC4)CC2)nc(C)n1 [Example H-86, (3R)-N-[1-(2,6-Dimethyl-pyrimidin-4-yl)-piperidin-4-yl]-N-methyl-3-(3-methyl-butanoylamino)-2,3-dihydro-1H-indene-5-carboxylic acid amide] | 98% | 100% |
| CN(C(=O)c1cc(F)c2c(c1)[C@H](N1Cc3cccc(Cl)c3C1=O)CCO2)C1CCN(c2ccncc2)CC1 [Example H-87, (4R)-4-(4-Chloro-3-oxo-1,2-dihydro-isoindol-2-yl)-8-fluoro-N-methyl-N-(1-pyridin-4-yl-piperidin-4-yl)-3,4-dihydro-2H-chromene-6-carboxylic acid amide] | 104% | 39% |
| Cc1cc(N2CCC(N(C)C(=O)c3ccc4c(c3)[C@H](NC(=O)C3CCOCC3)CC4)CC2)ccn1 [Example H-88, N-[(1R)-6-[Methyl-[1-(2-methyl-pyridin-4-yl)-piperidin-4-yl]-carbamoyl]-2,3-dihydro-1H-inden-1-yl]-tetrahydro-pyran-4-carboxylic acid amide] | 104% | 96% |
| Cc1cc(N2CCC(N(C)C(=O)c3ccc4c(c3)[C@H](NC(=O)C3CCOCC3)CC4)CC2)nc(C)n1 [Example H-89, N-[(1R)-6-[[1-(2,6-Dimethyl-pyrimidin-4-yl)-piperidin-4-yl]-methyl-carbamoyl]-2,3-dihydro-1H-inden-1-yl]-tetrahydro-pyran-4-carboxylic acid amide] | 89% | 74% |
